Assays:
Assay in all cases: relative viability (nuclei count vs DMSO), 5 days (fraction); higher = more cells survive
[1] = tested on: NCI-H1437
Summary of the method: (§1)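 A single step with final 0.05% Triton X-100, 1% formaldehyde and 1 ug/ml Hoechst fixed the cells and stained nuclei 5 days after treatment. Lung cancer cell lines in 1536-well plates had been treated by pin tool the day after seeding with one drug alone or a fixed anchor-drug dose plus five library-drug doses (not always all listed) in √10 steps, and nuclei were counted on 4× images. Relative viability is the ratio of nuclei in treated wells to nuclei in vehicle wells, taken as the median of duplicate plates.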

[2] = tested on: NCI-H1755
Summary of the method: as §1

[3] = tested on: NCI-H1792
Summary of the method: as §1

[4] = tested on: NCI-H1915
Summary of the method: as §1

[5] = tested on: NCI-H1975
Summary of the method: as §1

[6] = tested on: NCI-H2009
Summary of the method: as §1

[7] = tested on: NCI-H2228
Summary of the method: as §1

[8] = tested on: NCI-H23
Summary of the method: as §1

[9] = tested on: NCI-H460
Summary of the method: as §1

[10] = tested on: SK-LU-1
Summary of the method: as §1

[11] = tested on: SW 1573
Summary of the method: as §1

Question: Which results are given for `NC(=O)Nc1cc(-c2cccc(F)c2)sc1C(=O)N[C@H]1CCCNC1` [AZD7762] + Nc1nc2[nH]cc(CCc3ccc(C(=O)N[C@@H](CCC(=O)O)C(=O)O)cc3)c2c(=O)[nH]1 [Pemetrexed] (partner 0.2 µM)?
Answer: relative viability ([1]; first compound 0.01 µM): 0.298; relative viability ([1]; first compound 0.03162 µM): 0.261; relative viability ([1]; first compound 0.1 µM): 0.229; relative viability ([1]; first compound 0.3162 µM): 0.206; relative viability ([1]; first compound 1 µM): 0.172; relative viability ([2]; first compound 0.01 µM): 0.48; relative viability ([2]; first compound 0.03162 µM): 0.441; relative viability ([2]; first compound 0.1 µM): 0.401; relative viability ([2]; first compound 0.3162 µM): 0.36; relative viability ([2]; first compound 1 µM): 0.277; relative viability ([3]; first compound 0.01 µM): 0.957; relative viability ([3]; first compound 0.03162 µM): 0.822; relative viability ([3]; first compound 0.1 µM): 0.844; relative viability ([3]; first compound 0.3162 µM): 0.732; relative viability ([3]; first compound 1 µM): 0.421; relative viability ([4]; first compound 0.01 µM): 0.434; relative viability ([4]; first compound 0.03162 µM): 0.412; relative viability ([4]; first compound 0.1 µM): 0.346; relative viability ([4]; first compound 0.3162 µM): 0.264; relative viability ([4]; first compound 1 µM): 0.217; relative viability ([5]; first compound 0.01 µM): 0.309; relative viability ([5]; first compound 0.03162 µM): 0.27; relative viability ([5]; first compound 0.1 µM): 0.254; relative viability ([5]; first compound 0.3162 µM): 0.221; relative viability ([5]; first compound 1 µM): 0.198; relative viability ([6]; first compound 0.01 µM): 1; relative viability ([6]; first compound 0.03162 µM): 1.02; relative viability ([6]; first compound 0.1 µM): 1.03; relative viability ([6]; first compound 0.3162 µM): 0.888; relative viability ([6]; first compound 1 µM): 0.783; relative viability ([7]; first compound 0.01 µM): 0.279; relative viability ([7]; first compound 0.03162 µM): 0.328; relative viability ([7]; first compound 0.1 µM): 0.293; relative viability ([7]; first compound 0.3162 µM): 0.299; relative viability ([7]; first compound 1 µM): 0.2; relative viability ([8]; first compound 0.01 µM): 0.722; relative viability ([8]; first compound 0.03162 µM): 0.62; relative viability ([8]; first compound 0.1 µM): 0.514; relative viability ([8]; first compound 0.3162 µM): 0.359; relative viability ([8]; first compound 1 µM): 0.275; relative viability ([9]; first compound 0.01 µM): 0.0576; relative viability ([9]; first compound 0.03162 µM): 0.0605; relative viability ([9]; first compound 0.1 µM): 0.0567; relative viability ([9]; first compound 0.3162 µM): 0.0462; relative viability ([9]; first compound 1 µM): 0.0366; relative viability ([10]; first compound 0.01 µM): 1.14; relative viability ([10]; first compound 0.03162 µM): 0.776; relative viability ([10]; first compound 0.1 µM): 0.698; relative viability ([10]; first compound 0.3162 µM): 0.299; relative viability ([10]; first compound 1 µM): 0.238; relative viability ([11]; first compound 0.01 µM): 0.796; relative viability ([11]; first compound 0.03162 µM): 0.778; relative viability ([11]; first compound 0.1 µM): 0.717; relative viability ([11]; first compound 0.3162 µM): 0.604; relative viability ([11]; first compound 1 µM): 0.272
